From the supplement of paper PMC11061612

Key:
Experiment in all cases: Bliss excess, mean over the matrix (fraction); higher = more synergy
[1] = test system: MDA-MB-415 (Breast Carcinoma)
How it was run: (§1)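 Cell lines grown in DMEM/F12 or RPMI with 10% FBS were plated in 1536-well plates and held 24 hours at 37°C, 5% CO2 before 72 hours of exposure to two-drug dose matrices, with DMSO typically at 0.2%. CellTiter-Glo 2.0 luminescence gave viability, which was converted to inhibition. Vehicle wells were set to 0 and blank wells to 1. Combination Emax is the second-highest inhibition in the matrix, and Bliss excess is the observed combination effect minus the expected EA + EB − EA·EB, where EA and EB are the single-agent effects.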

KALS-1 (Glioblastoma) = test system: KALS-1 (Glioblastoma)
How it was run: as §1

[2] = test system: NCI-H1341 (Small Cell Lung Carcinoma)
How it was run: as §1

[3] = test system: DBTRG-05MG (Glioblastoma)
How it was run: as §1

[4] = test system: MONO-MAC-6 (Acute Myeloid Leukemia)
How it was run: as §1

[5] = test system: KP-4 (Pancreatic Carcinoma)
How it was run: as §1

[6] = test system: T84 (Colorectal Carcinoma)
How it was run: as §1

WM35 (Melanoma) = test system: WM35 (Melanoma)
How it was run: as §1

[7] = test system: PL4 (Pancreatic Carcinoma)
How it was run: as §1

[8] = test system: BHT-101 (Thyroid Gland Carcinoma)
How it was run: as §1

[9] = test system: SAT (Head and Neck Carcinoma)
How it was run: as §1

[10] = test system: SK-CO-1 (Colorectal Carcinoma)
How it was run: as §1

[11] = test system: HT-1080 (Other Solid Carcinomas)
How it was run: as §1

[12] = test system: C-33-A (Cervical Carcinoma)
How it was run: as §1

[13] = test system: PA-TU-8988T (Pancreatic Carcinoma)
How it was run: as §1

[14] = test system: NCI-H1876 (Small Cell Lung Carcinoma)
How it was run: as §1

[15] = test system: OVCAR-3 (Ovarian Carcinoma)
How it was run: as §1

[16] = test system: IA-LM (Non-Small Cell Lung Carcinoma)
How it was run: as §1

[17] = test system: NCI-H3118 (Head and Neck Carcinoma)
How it was run: as §1

[18] = test system: SNU-423 (Hepatocellular Carcinoma)
How it was run: as §1

| SMILES | Bliss excess [1] | Bliss excess (KALS-1 (Glioblastoma)) | Bliss excess [2] | Bliss excess [3] | Bliss excess [4] | Bliss excess [5] | Bliss excess [6] | Bliss excess (WM35 (Melanoma)) | Bliss excess [7] | Bliss excess [8] | Bliss excess [9] | Bliss excess [10] | Bliss excess [11] | Bliss excess [12] | Bliss excess [13] | Bliss excess [14] | Bliss excess [15] | Bliss excess [16] | Bliss excess [17] | Bliss excess [18] |
| --- | --- | --- | --- | --- | --- | --- | --- | --- | --- | --- | --- | --- | --- | --- | --- | --- | --- | --- | --- | --- |
| CN(C)CCCOc1ccc(-c2ccc3ncc4c(c3c2)n(C2CCOCC2)c(=O)n4C)cn1 [AZD0156] + C=CCn1c(=O)c2cnc(Nc3ccc(N4CCN(C)CC4)cc3)nc2n1-c1cccc(C(C)(C)O)n1 [AZD1775] (first compound max 1 µM, partner max 1 µM) | -0.0615 | 0.0014 | -0.0201 | -0.0489 | 0.0017 | -0.0898 | -0.0631 | -0.0166 | -0.0586 | -0.0209 | -0.0388 | -0.0523 | -0.0316 | -0.0461 | -0.0504 | 0.0171 | -0.02 | -0.0068 | -0.0933 | -0.0554 |
| CN(C)CCCOc1ccc(-c2ccc3ncc4c(c3c2)n(C2CCOCC2)c(=O)n4C)cn1 [AZD0156] + CCN(CCO)CCCOc1ccc2c(Nc3cc(CC(=O)Nc4cccc(F)c4)[nH]n3)ncnc2c1 [AZD2811] (first compound max 1 µM, 7x7, partner max 1 µM) | -0.0087 | -0.0245 | 0.005 | -0.0453 | 0.053 | -0.0162 | -0.0248 | -0.0426 | 0.0286 | -0.0273 | -0.0362 | 0.0205 | -0.0159 | -0.0142 | 0.0079 | -0.0557 | -0.01 | -0.0326 | -0.0316 | -0.0192 |
| CN(C)CCCOc1ccc(-c2ccc3ncc4c(c3c2)n(C2CCOCC2)c(=O)n4C)cn1 [AZD0156] + C[C@@H]1COCCN1C2=NC(=NC(=C2)C3(CC3)[S@](=N)(=O)C)C4=C5C=CNC5=NC=C4 [AZD6738] (first compound max 1 µM, 7x7, partner max 10 µM) | -0.007 | -0.0032 | 0.0309 | -0.022 | -0.0253 | -0.0286 | 0.0182 | 0.0618 | 0.0862 | 0.0222 | -0.0116 | -0.0865 | 0.02 | 0.0157 | 0.0423 | 0.0226 | 0.0353 | -0.0241 | -0.0235 | -0.0414 |
| CN(C)CCCOc1ccc(-c2ccc3ncc4c(c3c2)n(C2CCOCC2)c(=O)n4C)cn1 [AZD0156] + O=C(c1cc(Cc2n[nH]c(=O)c3ccccc23)ccc1F)N1CCN(C(=O)C2CC2)CC1 [Olaparib] (first compound max 3 µM, partner max 3 µM) | 0.0017 | -0.0235 | -0.0165 | -0.0207 | 0.102 | 0.0711 | -0.0535 | -0.0272 | 0.018 | 0.0766 | -0.0346 | -0.0173 | -0.0054 | 0.0868 | 0.0235 | 0.103 | -0.0371 | 0.0017 | 0.0479 | 0.0634 |
| C=CCn1c(=O)c2cnc(Nc3ccc(N4CCN(C)CC4)cc3)nc2n1-c1cccc(C(C)(C)O)n1 [AZD1775] + C[C@@H]1COCCN1C2=NC(=NC(=C2)C3(CC3)[S@](=N)(=O)C)C4=C5C=CNC5=NC=C4 [AZD6738] (first compound max 1 µM, partner max 10 µM) | 0.0112 | 0.0058 | 0.0723 | -0.0076 | 0.0178 | 0.031 | 0.0084 | 0.0626 | 0.0501 | 0.0094 | -0.0229 | -0.0067 | 0.0145 | 0.0554 | 0.0222 | 0.0099 | 0.113 | 0.0477 | 0.0218 | -0.0095 |
| C=CCn1c(=O)c2cnc(Nc3ccc(N4CCN(C)CC4)cc3)nc2n1-c1cccc(C(C)(C)O)n1 [AZD1775] + O=C(c1cc(Cc2n[nH]c(=O)c3ccccc23)ccc1F)N1CCN(C(=O)C2CC2)CC1 [Olaparib] (first compound max 1 µM, partner max 10 µM) | -0.0482 | -0.0611 | -0.0236 | -0.0747 | 0.0004 | -0.0373 | -0.0136 | -0.0146 | 0.0037 | -0.0568 | -0.0474 | -0.0858 | -0.0327 | 0.0051 | -0.0094 | 0.0311 | 0.0351 | -0.0513 | -0.0301 | -0.0577 |
| CCN(CCO)CCCOc1ccc2c(Nc3cc(CC(=O)Nc4cccc(F)c4)[nH]n3)ncnc2c1 [AZD2811] + C=CCn1c(=O)c2cnc(Nc3ccc(N4CCN(C)CC4)cc3)nc2n1-c1cccc(C(C)(C)O)n1 [AZD1775] (first compound max 1 µM, partner max 1 µM) | -0.0152 | -0.0307 | 0.0747 | -0.0402 | 0.0263 | 0.0441 | -0.0627 | -0.0098 | -0.0002 | 0.0043 | 0.033 | -0.0559 | 0.025 | 0.0111 | 0.0311 | -0.0318 | -0.0154 | 0.0064 | -0.0798 | -0.01 |
| CCN(CCO)CCCOc1ccc2c(Nc3cc(CC(=O)Nc4cccc(F)c4)[nH]n3)ncnc2c1 [AZD2811] + C[C@@H]1COCCN1C2=NC(=NC(=C2)C3(CC3)[S@](=N)(=O)C)C4=C5C=CNC5=NC=C4 [AZD6738] (first compound max 1 µM, 7x7, partner max 10 µM) | -0.0438 | -0.038 | 0.0028 | -0.0657 | -0.0262 | -0.0273 | -0.0103 | -0.0306 | -0.0171 | -0.0298 | -0.0581 | -0.0309 | -0.0375 | -0.0531 | 0.0002 | -0.0316 | -0.0269 | -0.0264 | -0.0682 | -0.0386 |
| CCN(CCO)CCCOc1ccc2c(Nc3cc(CC(=O)Nc4cccc(F)c4)[nH]n3)ncnc2c1 [AZD2811] + O=C(c1cc(Cc2n[nH]c(=O)c3ccccc23)ccc1F)N1CCN(C(=O)C2CC2)CC1 [Olaparib] (first compound max 1 µM, 7x7, partner max 10 µM) | 0.0059 | 0.0144 | 0.0125 | -0.0179 | 0.0056 | 0.0525 | -0.0067 | 0.0069 | -0.0043 | -0.0193 | -0.0469 | 0.0223 | -0.0043 | -0.0108 | 0.0228 | -0.114 | -0.0051 | -0.031 | 0.0075 | -0.0138 |
| CN(CCO)CC[C@H](CSc1ccccc1)Nc1ccc(S(=O)(=O)NC(=O)c2ccc(N3CCC([C@@H](O)c4ccccc4-c4ccc(Cl)cc4)CC3)cc2)cc1S(=O)(=O)C(F)(F)F [AZD4320] + C1CN(CCC1(C(=O)N[C@@H](CCO)C2=CC=C(C=C2)Cl)N)C3=NC=NC4=C3C=CN4 [Capivasertib] (first compound max 1 µM, 7x7, partner max 3 µM) | -0.0284 | -0.0039 | -0.0203 | -0.047 | -0.0438 | -0.0436 | -0.0269 | -0.017 | -0.0712 | 0.0092 | -0.0363 | -0.0462 | -0.0794 | -0.0302 | -0.0315 | -0.0593 | -0.0393 | -0.0888 | -0.0476 | -0.0338 |
| CN(CCO)CC[C@H](CSc1ccccc1)Nc1ccc(S(=O)(=O)NC(=O)c2ccc(N3CCC([C@@H](O)c4ccccc4-c4ccc(Cl)cc4)CC3)cc2)cc1S(=O)(=O)C(F)(F)F [AZD4320] + C=CCn1c(=O)c2cnc(Nc3ccc(N4CCN(C)CC4)cc3)nc2n1-c1cccc(C(C)(C)O)n1 [AZD1775] (first compound max 1 µM, partner max 1 µM) | -0.0034 | 0.0252 | 0.0676 | 0.0555 | 0.117 | -0.0187 | -0.0408 | -0.0178 | -0.0586 | 0.0142 | -0.0251 | -0.0412 | -0.0354 | -0.0246 | 0.0011 | 0.0833 | 0.0007 | 0.0161 | -0.0226 | -0.0129 |
| CN(CCO)CC[C@H](CSc1ccccc1)Nc1ccc(S(=O)(=O)NC(=O)c2ccc(N3CCC([C@@H](O)c4ccccc4-c4ccc(Cl)cc4)CC3)cc2)cc1S(=O)(=O)C(F)(F)F [AZD4320] + CCN(CCO)CCCOc1ccc2c(Nc3cc(CC(=O)Nc4cccc(F)c4)[nH]n3)ncnc2c1 [AZD2811] (first compound max 1 µM, 7x7, partner max 1 µM) | 0.0756 | 0.0804 | 0.0422 | 0.0363 | 0.145 | -0.021 | -0.0305 | -0.0084 | 0.0251 | -0.0112 | 0.0112 | 0.0178 | -0.0046 | -0.0283 | 0.0239 | 0.0935 | -0.005 | 0.0119 | 0.002 | -0.0325 |
| CN(CCO)CC[C@H](CSc1ccccc1)Nc1ccc(S(=O)(=O)NC(=O)c2ccc(N3CCC([C@@H](O)c4ccccc4-c4ccc(Cl)cc4)CC3)cc2)cc1S(=O)(=O)C(F)(F)F [AZD4320] + CN(C)CCCOc1ccc(-c2ccc3ncc4c(c3c2)n(C2CCOCC2)c(=O)n4C)cn1 [AZD0156] (first compound max 1 µM, 7x7, partner max 1 µM) | -0.114 | -0.0076 | 0.0517 | -0.0497 | 0.0324 | -0.0604 | -0.0243 | -0.0141 | 0.0463 | -0.0193 | -0.0214 | -0.0758 | -0.0895 | -0.0302 | -0.005 | 0.0374 | -0.0407 | -0.0239 | -0.044 | -0.0727 |
| CN(CCO)CC[C@H](CSc1ccccc1)Nc1ccc(S(=O)(=O)NC(=O)c2ccc(N3CCC([C@@H](O)c4ccccc4-c4ccc(Cl)cc4)CC3)cc2)cc1S(=O)(=O)C(F)(F)F [AZD4320] + C[C@@H](Nc1cc(F)cc(F)c1)c1cc(C(=O)N(C)C)cc2c(=O)cc(N3CCOCC3)oc12 [AZD8186] (first compound max 1 µM, 7x7, partner max 3 µM) | 0.0439 | 0.0385 | 0.0517 | 0.02 | 0.0342 | 0.0087 | -0.0287 | 0.047 | -0.0411 | -0.0192 | -0.0231 | -0.051 | -0.0232 | -0.0542 | -0.005 | 0.0682 | -0.0135 | 0.0085 | 0.0019 | -0.0628 |
